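The compound was tested at five concentrations on cells cultured in 96-well plates, with a 48-hour exposure period. The concentration for 50% growth inhibition is given as GI50.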 Active and inactive are the calls of the source. No stated cut-off is given here; in the data, active = GI50 up to about 1.1 µM and inactive = higher.
Tests used:
Assay in all cases: inhibition of tumour cell growth, NCI panel, 48 h
HT-29 = system: HT-29
TK-10 = system: TK-10
IGROV-1 = system: IGROV-1
SF-295 = system: SF-295
A549 = system: A549
DU-145 = system: DU-145
ACHN = system: ACHN
UO-31 = system: UO-31
RXF 393 = system: RXF 393
SK-MEL-28 = system: SK-MEL-28
COLO 205 = system: COLO 205
OVCAR-8 = system: OVCAR-8
SK-MEL-2 = system: SK-MEL-2
KM12 = system: KM12
CAKI-1 = system: CAKI-1
HCT-116 = system: HCT-116
NCI/ADR-RES = system: NCI/ADR-RES
OVCAR-5 = system: OVCAR-5
SNB-75 = system: SNB-75
NCI-H23 = system: NCI-H23

Measured: GI50

C=C(C)[C@@H](C(=O)OC)N1C(=O)c2ccccc2C1=O
inactive: HT-29 > 100 µM | TK-10 > 100 µM | IGROV-1 > 100 µM | SF-295 > 100 µM | A549 > 100 µM | DU-145 > 100 µM | ACHN > 100 µM | UO-31 > 100 µM | RXF 393 > 100 µM | SK-MEL-28 > 100 µM | COLO 205 > 100 µM | OVCAR-8 > 100 µM | SK-MEL-2 > 100 µM | KM12 > 100 µM | CAKI-1 > 100 µM | HCT-116 > 100 µM | NCI/ADR-RES > 100 µM | OVCAR-5 > 100 µM | SNB-75 > 100 µM | NCI-H23 > 100 µM

COC(=O)/C=C(/C)n1nc2ccccc2n1
inactive: HT-29 > 100 µM | TK-10 > 100 µM | IGROV-1 > 100 µM | SF-295 > 100 µM | A549 > 100 µM | DU-145 > 100 µM | ACHN > 100 µM | UO-31 > 100 µM | RXF 393 > 100 µM | SK-MEL-28 > 100 µM | COLO 205 > 100 µM | OVCAR-8 > 100 µM | SK-MEL-2 > 100 µM | KM12 > 100 µM | CAKI-1 > 100 µM | HCT-116 > 100 µM | NCI/ADR-RES > 100 µM | OVCAR-5 > 100 µM | SNB-75 > 100 µM | NCI-H23 > 100 µM

OC(COc1ccccc1)CN1CCCCC1 (stereo not given)
inactive: HT-29 > 100 µM | TK-10 > 100 µM | IGROV-1 > 100 µM | SF-295 > 100 µM | A549 > 100 µM | DU-145 > 100 µM | ACHN > 100 µM | UO-31 > 100 µM | RXF 393 > 100 µM | SK-MEL-28 > 100 µM | COLO 205 > 100 µM | OVCAR-8 > 100 µM | SK-MEL-2 > 100 µM | KM12 > 100 µM | CAKI-1 > 100 µM | HCT-116 > 100 µM | NCI/ADR-RES > 100 µM | OVCAR-5 > 100 µM | SNB-75 > 100 µM | NCI-H23 > 100 µM

N#Cc1ccc2oc3ccc(C#N)cc3c(=O)c2c1
inactive: HT-29 20.2 µM | TK-10 24.3 µM | IGROV-1 32 µM | SF-295 22.9 µM | A549 23 µM | DU-145 30.8 µM | ACHN > 100 µM | UO-31 > 100 µM | RXF 393 18.3 µM | SK-MEL-28 18.5 µM | COLO 205 26.7 µM | OVCAR-8 > 100 µM | SK-MEL-2 19.6 µM | KM12 46.5 µM | CAKI-1 > 100 µM | HCT-116 29 µM | NCI/ADR-RES > 100 µM | OVCAR-5 19.7 µM | SNB-75 31.7 µM | NCI-H23 21.3 µM

COc1cc(CSc2ccc(O)cc2)cc(OC)c1OC
inactive: HT-29 50.4 µM | TK-10 75.2 µM | IGROV-1 48.5 µM | SF-295 24.9 µM | A549 48.4 µM | DU-145 53.2 µM | ACHN 31.3 µM | UO-31 14.5 µM | RXF 393 > 100 µM | SK-MEL-28 76.7 µM | COLO 205 67.8 µM | OVCAR-8 33.8 µM | SK-MEL-2 21 µM | KM12 30.2 µM | CAKI-1 34.6 µM | HCT-116 53 µM | NCI/ADR-RES 24.7 µM | OVCAR-5 52.1 µM | SNB-75 23.1 µM | NCI-H23 28.6 µM

Cn1c(=O)cc(NCCc2ccccc2)[nH]c1=O
inactive: HT-29 25.5 µM | TK-10 > 100 µM | IGROV-1 38.8 µM | SF-295 20.9 µM | A549 38.8 µM | DU-145 52 µM | ACHN 39.3 µM | UO-31 34.1 µM | RXF 393 57.8 µM | SK-MEL-28 67.8 µM | COLO 205 31.6 µM | OVCAR-8 43.4 µM | SK-MEL-2 51.1 µM | KM12 15.3 µM | CAKI-1 22.8 µM | HCT-116 34.2 µM | NCI/ADR-RES 24.7 µM | OVCAR-5 > 100 µM | SNB-75 19.9 µM | NCI-H23 91.8 µM

CC(C)(/N=N/C(C)(C)C(=N)N)C(=N)N
inactive: HT-29 > 100 µM | TK-10 > 100 µM | IGROV-1 > 100 µM | SF-295 > 100 µM | A549 > 100 µM | DU-145 > 100 µM | ACHN > 100 µM | UO-31 > 100 µM | RXF 393 > 100 µM | SK-MEL-28 > 100 µM | COLO 205 > 100 µM | OVCAR-8 > 100 µM | SK-MEL-2 > 100 µM | KM12 > 100 µM | CAKI-1 > 100 µM | HCT-116 > 100 µM | NCI/ADR-RES > 100 µM | OVCAR-5 > 100 µM | SNB-75 > 100 µM | NCI-H23 > 100 µM

Cc1ccc(S(=O)(=O)NC(=O)C2=C3SCCN3C(=O)N(S(=O)(=O)c3ccc(C)cc3)C2c2ccccc2)cc1 (stereo not given)
inactive: HT-29 34.4 µM | TK-10 > 100 µM | IGROV-1 46.9 µM | SF-295 31.5 µM | A549 > 100 µM | DU-145 > 100 µM | ACHN > 100 µM | UO-31 > 100 µM | RXF 393 25.1 µM | SK-MEL-28 50.2 µM | COLO 205 19.9 µM | OVCAR-8 77.1 µM | SK-MEL-2 46.8 µM | KM12 28.2 µM | CAKI-1 > 100 µM | HCT-116 36.1 µM | NCI/ADR-RES > 100 µM | OVCAR-5 39.4 µM | SNB-75 43.4 µM | NCI-H23 40.6 µM
